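Each compound was tested at five concentrations against cells in 96-well plates for 48 hours. TGI: concentration producing complete growth inhibition.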
How the values were obtained:
Assay in all cases: NCI-60 cell line screen, 48 h
786-0 renal = tested on: 786-0 renal
A498 renal = tested on: A498 renal
A549 NSCLC = tested on: A549 NSCLC
ACHN renal = tested on: ACHN renal
BT-549 breast = tested on: BT-549 breast
CAKI-1 renal = tested on: CAKI-1 renal
CCRF-CEM leukemia = tested on: CCRF-CEM leukemia
COLO 205 colon = tested on: COLO 205 colon
DU-145 prostate = tested on: DU-145 prostate
EKVX NSCLC = tested on: EKVX NSCLC
HCC-2998 colon = tested on: HCC-2998 colon
HCT-116 colon = tested on: HCT-116 colon
HCT-15 colon = tested on: HCT-15 colon
HL-60(TB) leukemia = tested on: HL-60(TB) leukemia
HOP-62 NSCLC = tested on: HOP-62 NSCLC
HOP-92 NSCLC = tested on: HOP-92 NSCLC
HS 578T breast = tested on: HS 578T breast
HT29 colon = tested on: HT29 colon
IGROV1 ovarian = tested on: IGROV1 ovarian
K-562 leukemia = tested on: K-562 leukemia
KM12 colon = tested on: KM12 colon
LOX IMVI melanoma = tested on: LOX IMVI melanoma
M14 melanoma = tested on: M14 melanoma
MCF7 breast = tested on: MCF7 breast
MDA-MB-231 breast = tested on: MDA-MB-231 breast
MDA-MB-435 = tested on: MDA-MB-435
MDA-N = tested on: MDA-N
MOLT-4 leukemia = tested on: MOLT-4 leukemia
NCI-H226 lung = tested on: NCI-H226 lung
NCI-H23 lung = tested on: NCI-H23 lung
NCI-H460 lung = tested on: NCI-H460 lung
NCI-H522 lung = tested on: NCI-H522 lung
NCI/ADR-RES ovarian = tested on: NCI/ADR-RES ovarian
OVCAR-3 ovarian = tested on: OVCAR-3 ovarian
OVCAR-4 ovarian = tested on: OVCAR-4 ovarian
OVCAR-5 ovarian = tested on: OVCAR-5 ovarian
OVCAR-8 ovarian = tested on: OVCAR-8 ovarian
PC-3 prostate = tested on: PC-3 prostate
RPMI-8226 leukemia = tested on: RPMI-8226 leukemia
RXF 393 renal = tested on: RXF 393 renal
SF-268 CNS = tested on: SF-268 CNS
SF-295 CNS = tested on: SF-295 CNS
SF-539 CNS = tested on: SF-539 CNS
SK-MEL-2 melanoma = tested on: SK-MEL-2 melanoma
SK-MEL-28 melanoma = tested on: SK-MEL-28 melanoma
SK-MEL-5 melanoma = tested on: SK-MEL-5 melanoma
SK-OV-3 ovarian = tested on: SK-OV-3 ovarian
SN12C renal = tested on: SN12C renal
SNB-19 CNS = tested on: SNB-19 CNS
SNB-75 CNS = tested on: SNB-75 CNS
SR leukemia = tested on: SR leukemia
SW-620 colon = tested on: SW-620 colon
T-47D breast = tested on: T-47D breast
TK-10 renal = tested on: TK-10 renal
U251 CNS = tested on: U251 CNS
UACC-257 melanoma = tested on: UACC-257 melanoma
UACC-62 melanoma = tested on: UACC-62 melanoma
UO-31 renal = tested on: UO-31 renal
MALME-3M melanoma = tested on: MALME-3M melanoma

Measured: TGI

CN(O)C(=O)c1cccc(Cl)c1
not listed: MALME-3M melanoma
> 100 µM: all other assays above

CCOC(=O)/C=C(/C(=O)OCC)n1ccc(N)nc1=O
54.8 µM: NCI-H522 lung
76 µM: CCRF-CEM leukemia
not listed: A498 renal | RXF 393 renal
> 100 µM: all other assays above
